Holding throughout (type): functional, cell-based
The target in assay [1] is T1, Taste receptor type 2 member 10 (Homo sapiens) (UniProt Q9NYW0).
T1 sequence (whole entry): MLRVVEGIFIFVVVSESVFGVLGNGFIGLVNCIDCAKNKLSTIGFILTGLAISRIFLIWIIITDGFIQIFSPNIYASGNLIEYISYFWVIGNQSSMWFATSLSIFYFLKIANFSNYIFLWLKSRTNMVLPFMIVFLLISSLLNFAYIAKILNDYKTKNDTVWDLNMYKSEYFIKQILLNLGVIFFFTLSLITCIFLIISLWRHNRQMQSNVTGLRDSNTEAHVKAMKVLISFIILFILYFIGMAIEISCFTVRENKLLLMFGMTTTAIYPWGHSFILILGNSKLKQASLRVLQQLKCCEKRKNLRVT
Briefly: Agonist activity at recombinant human N-terminal rat ST3 receptor-fused TAS2R10 expressed in HEK293T cells co-expressing Galpha16gust44 assessed as increase in intracellular calcium level at 100 uM by FLIPR assay.

Assay [2] addresses T2, Taste receptor type 2 member 46 (Homo sapiens) (UniProt P59540).
T2 sequence (whole entry): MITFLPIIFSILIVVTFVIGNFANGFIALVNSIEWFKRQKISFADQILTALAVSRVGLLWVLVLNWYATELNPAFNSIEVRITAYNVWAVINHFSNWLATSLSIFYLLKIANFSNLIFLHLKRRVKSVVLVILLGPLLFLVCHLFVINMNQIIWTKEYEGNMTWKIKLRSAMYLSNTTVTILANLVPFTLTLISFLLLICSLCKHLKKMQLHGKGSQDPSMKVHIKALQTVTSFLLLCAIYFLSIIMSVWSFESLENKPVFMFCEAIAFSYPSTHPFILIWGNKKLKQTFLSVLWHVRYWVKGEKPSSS
The assay can be described thus: Agonist activity at recombinant human N-terminal rat ST3 receptor-fused TAS2R46 expressed in HEK293T cells co-expressing Galpha16gust44 assessed as increase in intracellular calcium level at 100 uM by FLIPR assay.

The target in assay [3] is Taste receptor type 2 member 40 (Homo sapiens) (UniProt P59535). Briefly: Antagonist activity at recombinant human N-terminal rat ST3 receptor-fused TAS2R40 expressed in HEK293T cells co-expressing Galpha16gust44 assessed as inhibition of cohumulone-induced intracellular calcium level at 100 uM by FLIPR assay.
The target in assay [4] is T3, Taste receptor type 2 member 3 (Homo sapiens) (UniProt Q9NYW6).
T3 sequence (whole entry): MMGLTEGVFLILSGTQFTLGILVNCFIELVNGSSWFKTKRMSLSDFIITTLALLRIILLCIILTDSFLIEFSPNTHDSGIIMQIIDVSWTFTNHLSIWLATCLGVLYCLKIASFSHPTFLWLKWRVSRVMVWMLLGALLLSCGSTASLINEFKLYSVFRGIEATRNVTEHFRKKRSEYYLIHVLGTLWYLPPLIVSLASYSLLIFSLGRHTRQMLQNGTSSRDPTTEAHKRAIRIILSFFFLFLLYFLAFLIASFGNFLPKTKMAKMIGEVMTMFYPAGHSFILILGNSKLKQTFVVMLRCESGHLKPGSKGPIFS
Briefly: Antagonist activity at recombinant human N-terminal rat ST3 receptor-fused TAS2R3 expressed in HEK293T cells co-expressing Galpha16gust44 assessed as inhibition of chloroquine-induced increase in intracellular calcium level at 100 uM by FLIPR assay.

Assay [5] addresses T4, Taste receptor type 2 member 20 (Homo sapiens) (UniProt P59543).
T4 sequence (whole entry): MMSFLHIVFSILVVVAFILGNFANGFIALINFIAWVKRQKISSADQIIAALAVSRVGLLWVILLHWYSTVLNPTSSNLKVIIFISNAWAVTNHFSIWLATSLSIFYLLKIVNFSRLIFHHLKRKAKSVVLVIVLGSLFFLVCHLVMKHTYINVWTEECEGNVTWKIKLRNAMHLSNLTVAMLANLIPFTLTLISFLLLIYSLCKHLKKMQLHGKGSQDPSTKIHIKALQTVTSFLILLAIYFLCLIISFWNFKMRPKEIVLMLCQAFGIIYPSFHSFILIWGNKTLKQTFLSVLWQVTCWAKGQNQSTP
Briefly: Antagonist activity at recombinant human N-terminal rat ST3 receptor-fused TAS2R49 expressed in HEK293T cells co-expressing Galpha16gust44 assessed as inhibition of cromolyn-induced increase in intracellular calcium level at 100 uM by FLIPR assay.

The target in assay [6] is T5, Taste receptor type 2 member 1 (Homo sapiens) (UniProt Q9NYW7).
T5 sequence (whole entry): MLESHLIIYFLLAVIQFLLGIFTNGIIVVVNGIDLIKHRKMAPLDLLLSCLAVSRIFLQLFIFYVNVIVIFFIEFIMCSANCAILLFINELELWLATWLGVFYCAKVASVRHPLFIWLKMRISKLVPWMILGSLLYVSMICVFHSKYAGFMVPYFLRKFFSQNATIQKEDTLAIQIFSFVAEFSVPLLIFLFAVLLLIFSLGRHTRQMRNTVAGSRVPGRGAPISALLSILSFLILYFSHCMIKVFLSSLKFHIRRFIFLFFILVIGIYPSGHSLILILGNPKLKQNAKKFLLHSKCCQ
Briefly: Antagonist activity at recombinant human N-terminal rat ST3 receptor-fused TAS2R1 expressed in HEK293T cells co-expressing Galpha16gust44 assessed as inhibition of trans-isocohumulone-induced increase in intracellular calcium level at 100 uM by FLIPR assay.

The target in assay [7] is T6, Taste receptor type 2 member 14 (Homo sapiens) (UniProt Q9NYV8).
T6 sequence (whole entry): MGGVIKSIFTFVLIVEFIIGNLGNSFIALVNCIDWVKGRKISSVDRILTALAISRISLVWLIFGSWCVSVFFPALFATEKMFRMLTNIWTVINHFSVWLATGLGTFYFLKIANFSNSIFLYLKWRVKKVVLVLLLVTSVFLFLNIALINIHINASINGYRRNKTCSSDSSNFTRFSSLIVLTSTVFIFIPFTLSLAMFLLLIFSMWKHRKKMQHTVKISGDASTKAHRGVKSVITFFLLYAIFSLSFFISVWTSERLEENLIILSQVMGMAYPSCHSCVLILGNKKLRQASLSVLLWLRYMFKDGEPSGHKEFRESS
Briefly: Agonist activity at recombinant human N-terminal rat ST3 receptor-fused TAS2R14 expressed in HEK293T cells co-expressing Galpha16gust44 assessed as increase in intracellular calcium level at 100 uM by FLIPR assay.

For assay [8], the target named is T2, Taste receptor type 2 member 46 (Homo sapiens). Briefly: Antagonist activity at recombinant human N-terminal rat ST3 receptor-fused TAS2R46 expressed in HEK293T cells co-expressing Galpha16gust44 assessed as inhibition of picrotoxinin-induced intracellular calcium level at 100 uM by FLIPR assay.
In assay [9] the target is T6, Taste receptor type 2 member 14 (Homo sapiens). Briefly: Antagonist activity at recombinant human N-terminal rat ST3 receptor-fused TAS2R14 expressed in HEK293T cells co-expressing Galpha16gust44 assessed as inhibition of aristolochic acid-induced increase in intracellular calcium level at 100 uM by FLIPR assay.
Assay [10] concerns HEK-293T. The assay can be described thus: Effect on intracellular calcium level in mock-transfected HEK293T cells at 100 uM FLIPR assay. The following applies: Homo sapiens.

Activity calls are given as the source filed them. The calls are words filed in the database; no cut-off is given here.

Sequence of Taste receptor type 2 member 40 (Homo sapiens) (P59535 whole entry, the tested form may be a part): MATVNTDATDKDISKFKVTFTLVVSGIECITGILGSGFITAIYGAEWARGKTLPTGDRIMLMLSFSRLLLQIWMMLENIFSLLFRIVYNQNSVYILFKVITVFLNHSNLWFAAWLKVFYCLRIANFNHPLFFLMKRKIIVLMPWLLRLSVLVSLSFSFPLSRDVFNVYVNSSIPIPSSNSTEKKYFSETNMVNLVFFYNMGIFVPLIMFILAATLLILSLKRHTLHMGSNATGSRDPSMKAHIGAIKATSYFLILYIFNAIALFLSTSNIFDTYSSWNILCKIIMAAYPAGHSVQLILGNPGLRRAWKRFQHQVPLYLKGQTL

`C/C1=C\C[C@H](O)/C(C)=C/[C@H]2OC(=O)[C@@H](C)[C@@H]2CC1`: the outcome in [1] and in assay [7] was Active. Besides, the outcome in [2] and in assay [10] was inactive. Also, the inhibition entry in assay [3] and in [8] was “Active” throughout. Moreover, the inhibition entry in assay [4], in assay [5], in assay [6] and in assay [9] was “inactive” in each case.

As for `C/C1=C\C[C@H](O)[C@@H](C)C[C@H]2OC(=O)[C@@H](C)[C@@H]2CC1`, the outcome in assay [1], in [2] and in assay [7] was Active. Further, the inhibition entry in assay [3] and in assay [8] was “Active” throughout. Besides, the inhibition result in assay [4], in assay [5], in assay [6] and in [9] was “inactive” each time. The outcome in assay [10] was inactive.

The values are drawn from ChEMBL document CHEMBL4418912, “Methods of identifying antagonists of the hTAS2R46 bitter taste receptor” (2014).
